In US12590091B2, “1H-pyrrolo[3,2-C]pyridine and 1H-pyrrolo[2,3-C]pyridine derivatives as TLR9 inhibitors for the treatment of fibrosis” (BRISTOL-MYERS SQUIBB COMPANY, priority 2020, dated 2026) one finds IC50 data, which are given here for 21 compounds.

Each structure is given as a SMILES string.

The assay has as its target T1, human TLR9 (Homo sapiens, UniProt Q9NR96).
T1 construct: host or cells: HEK-Blue cells
T1 sequence (Q9NR96 26-1032): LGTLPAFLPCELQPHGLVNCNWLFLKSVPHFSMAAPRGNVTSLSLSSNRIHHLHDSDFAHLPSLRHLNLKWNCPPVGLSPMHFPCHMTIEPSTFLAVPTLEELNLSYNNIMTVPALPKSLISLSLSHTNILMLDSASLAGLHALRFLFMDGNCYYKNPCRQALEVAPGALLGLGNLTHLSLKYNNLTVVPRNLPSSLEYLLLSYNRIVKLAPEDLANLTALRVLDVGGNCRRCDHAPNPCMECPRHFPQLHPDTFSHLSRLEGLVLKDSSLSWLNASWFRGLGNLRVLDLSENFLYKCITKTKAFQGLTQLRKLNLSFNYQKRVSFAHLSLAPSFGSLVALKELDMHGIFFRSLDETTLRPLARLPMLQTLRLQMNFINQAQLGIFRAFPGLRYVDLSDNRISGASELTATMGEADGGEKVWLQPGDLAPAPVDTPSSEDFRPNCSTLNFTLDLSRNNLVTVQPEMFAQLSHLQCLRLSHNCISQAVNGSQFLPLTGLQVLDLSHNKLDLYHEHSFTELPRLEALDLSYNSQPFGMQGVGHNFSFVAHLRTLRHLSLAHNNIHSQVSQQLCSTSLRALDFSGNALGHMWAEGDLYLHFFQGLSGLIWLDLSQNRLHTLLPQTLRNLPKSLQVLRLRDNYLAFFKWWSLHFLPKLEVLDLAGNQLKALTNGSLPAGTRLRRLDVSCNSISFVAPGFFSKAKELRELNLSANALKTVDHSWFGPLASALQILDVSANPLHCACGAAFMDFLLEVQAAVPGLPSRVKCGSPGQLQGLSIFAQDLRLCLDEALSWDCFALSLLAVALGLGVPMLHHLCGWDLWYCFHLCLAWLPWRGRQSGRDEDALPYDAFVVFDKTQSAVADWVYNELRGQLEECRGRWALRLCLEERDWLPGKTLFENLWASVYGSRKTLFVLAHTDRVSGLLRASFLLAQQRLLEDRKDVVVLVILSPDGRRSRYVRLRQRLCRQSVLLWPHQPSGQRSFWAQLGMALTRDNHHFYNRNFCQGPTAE
The assay can be described thus: TLR9 inhibition reporter assay (HEK-Blue cells, SEAP reporter). Type of assay: cell-based. The conditions noted are these: HEK-Blue cells overexpressing human TLR9, stimulated with ODN2006 5 nM, 22 hour incubation. As for the experimental part: TLR7/8/9 Inhibition Reporter Assays
HEK-Blue™-cells (Invivogen) overexpressing human TLR7, TLR8 or TLR9 receptors were used for screening inhibitors of these receptors using an inducible SEAP (secreted embryonic alkaline phosphatase) reporter gene under the control of the IFN-β minimal promoter fused to five NF-κB and AP-1-binding sites. Briefly, cells are seeded into Greiner 384 well plates (15000 cells per well for TLR7, 20,000 for TLR8 and 25,000 for TLR9) and then treated with test compounds in DMSO to yield a final dose response concentration range of 0.05 nM-50 μM. […] After a 22 hour incubation at 37° C., 5% CO2, SEAP levels are determined with the addition of HEK-Blue™ Detection reagent (Invivogen), a cell culture medium that allows for detection of SEAP, according to manufacturer's specifications. The percent inhibition is determined as the % reduction in the HEK-Blue signal present in wells treated with agonist plus DMSO alone compared to wells treated with a known inhibitor.
What is called IC50 is the midpoint of a concentration-inhibition curve. Low values mean inhibition by little substance, high ones a need for much substance. The compound `Cc1nc(-c2ccc(N3CCN(C(C)C)CC3)c(F)c2)cc2c1cc(-c1ccc(S(C)(=O)=O)cc1)n2C` [Example 12, 6-(3-Fluoro-4-(4-isopropylpiperazin-1-yl)phenyl)-1,4-dimethyl-2-(4-(methylsulfonyl)phenyl)-1H-pyrrolo[3,2-c]pyridine] gave an IC50 of 36 nM.
`COc1ccc(-c2cc3cnc(-c4ccc(N5CCN(C(C)=O)CC5)cc4)cc3n2C)cc1OC` [Example 30, 1-(4-(4-(2-(3,4-dimethoxyphenyl)-1-methyl-1H-pyrrolo[3,2-c]pyridin-6-yl)phenyl)piperazin-1-yl) ethan-1-one] displayed a half-inhibitory concentration (IC50) of 579 nM.
The result for `Cc1nc(-c2ccc(N3CCN(C(C)C)CC3)cc2)cc2c1cc(-c1cccc(S(C)(=O)=O)c1)n2C` [Example 39, 6-(4-(4-isopropylpiperazin-1-yl)phenyl)-1,4-dimethyl-2-(3-(methylsulfonyl)phenyl)-1H-pyrrolo[3,2-c]pyridine] reads 672 nM; that for `Cc1nc(-c2ccc(N3CCN(CC(C)C)CC3)cc2)cc2c1cc(-c1cccc(S(C)(=O)=O)c1)n2C` [Example 40, 6-(4-(4-isobutylpiperazin-1-yl)phenyl)-1,4-dimethyl-2-(3-(methylsulfonyl)phenyl)-1H-pyrrolo[3,2-c]pyridine], 98 nM.
With `Cc1nc(-c2ccc(N3CCN(C(C)C)CC3)cc2)cc2c1cc(-c1ccc(S(=O)(=O)C3CC3)cc1)n2C` [Example 42, 2-(4-(Cyclopropylsulfonyl)phenyl)-6-(4-(4-isopropylpiperazin-1-yl)phenyl)-1,4-dimethyl-1H-pyrrolo[3,2-c]pyridine] the figure was 346 nM; with `Cc1nc(-c2ccc(N3CCN(CC(C)C)CC3)cc2)cc2c1cc(-c1ccc(S(=O)(=O)C3CC3)cc1)n2C` [Example 46, 2-(4-(cyclopropylsulfonyl)phenyl)-6-(4-(4-isobutylpiperazin-1-yl)phenyl)-1,4-dimethyl-1H-pyrrolo[3,2-c]pyridine], 213 nM; with `Cc1nc(-c2ccc(N3CCN(C(C)C)CC3)cc2)cc2c1cc(-c1ccc(S(=O)(=O)N(C)C)cc1)n2C` [Example 49, 4-(6-(4-(4-isopropylpiperazin-1-yl)phenyl)-1,4-dimethyl-1H-pyrrolo[3,2-c]pyridin-2-yl)-N,N-dimethylbenzenesulfonamide], 6760 nM.
The result for `Cc1nc(-c2ccc(N3CCN(C4COC4)CC3)cc2)cc2c1cc(-c1ccc(S(=O)(=O)N(C)C)cc1)n2C` [Example 50, 4-(1,4-dimethyl-6-(4-(4-(oxetan-3-yl)piperazin-1-yl)phenyl)-1H-pyrrolo[3,2-c]pyridin-2-yl)-N,N-dimethylbenzenesulfonamide] reads 2410 nM.
In turn, `COCCN1CCN(c2ccc(-c3cc4c(cc(-c5ccc(S(=O)(=O)N(C)C)cc5)n4C)c(C)n3)cc2)CC1` [Example 51, 4-(6-(4-(4-(2-methoxyethyl)piperazin-1-yl)phenyl)-1,4-dimethyl-1H-pyrrolo[3,2-c]pyridin-2-yl)-N,N-dimethylbenzenesulfonamide] displayed an IC50 of 44 nM.
The result for `Cc1nc(-c2ccc(N3CCN(C4CCOC4)CC3)cc2)cc2c1cc(-c1ccc(S(=O)(=O)N(C)C)cc1)n2C` (stereo not drawn) [Example 52, 4-(1,4-dimethyl-6-(4-(4-(tetrahydrofuran-3-yl)piperazin-1-yl)phenyl)-1H-pyrrolo[3,2-c]pyridin-2-yl)-N,N-dimethylbenzenesulfonamide] reads 202 nM; that for `Cc1nc(-c2ccc(N3CCN(C4CC4)CC3)cc2)cc2c1cc(-c1ccc(S(C)(=O)=O)cc1)n2C` [Example 62, 6-(4-(4-cyclopropylpiperazin-1-yl)phenyl)-1,4-dimethyl-2-(4-(methylsulfonyl)phenyl)-1H-pyrrolo[3,2-c]pyridine], 105 nM; that for `Cc1nc(-c2ccc(N3CCN4CCCC4C3)cc2)cc2c1cc(-c1ccc(S(C)(=O)=O)cc1)n2C` (stereo not drawn) [Example 63, 6-(4-(hexahydropyrrolo[1,2-a]pyrazin-2(1H)-yl)phenyl)-1,4-dimethyl-2-(4-(methylsulfonyl)phenyl)-1H-pyrrolo[3,2-c]pyridine], 146 nM.
With `Cc1nc(-c2ccc(N3CC4CCC(C3)N4C(C)C)cc2)cc2c1cc(-c1ccc(S(C)(=O)=O)cc1)n2C` [Example 64, 6-(4-(8-isopropyl-3,8-diazabicyclo[3.2.1]octan-3-yl)phenyl)-1,4-dimethyl-2-(4-(methylsulfonyl)phenyl)-1H-pyrrolo[3,2-c]pyridine] the figure was 6.4 nM.
With `Cc1nc(-c2ccc(N3CCN4CCCC4C3)c(F)c2)cc2c1cc(-c1ccc(S(C)(=O)=O)cc1)n2C` (stereo not drawn) [Example 65, 6-(3-fluoro-4-(hexahydropyrrolo[1,2-a]pyrazin-2(1H)-yl)phenyl)-1,4-dimethyl-2-(4-(methylsulfonyl)phenyl)-1H-pyrrolo[3,2-c]pyridine] the figure was 136 nM; with `COCCN1CCN(c2ccc(-c3cc4c(cc(-c5ccc(S(C)(=O)=O)cc5)n4C)c(C)n3)cc2F)CC1` [Example 66, 6-(3-fluoro-4-(4-(2-methoxyethyl)piperazin-1-yl)phenyl)-1,4-dimethyl-2-(4-(methylsulfonyl)phenyl)-1H-pyrrolo[3,2-c]pyridine], 136 nM; with `Cc1nc(-c2cccc(N3CCN(C(C)C)CC3)c2)cc2c1cc(-c1ccc(S(C)(=O)=O)cc1)n2C` [Example 67, 6-(3-(4-isopropylpiperazin-1-yl)phenyl)-1,4-dimethyl-2-(4-(methylsulfonyl)phenyl)-1H-pyrrolo[3,2-c]pyridine], 25 nM.
As to `Cc1nc(-c2cccc(N3CCN(C4CC4)CC3)c2)cc2c1cc(-c1ccc(S(C)(=O)=O)cc1)n2C` [Example 68, 6-(3-(4-cyclopropylpiperazin-1-yl)phenyl)-1,4-dimethyl-2-(4-(methylsulfonyl)phenyl)-1H-pyrrolo[3,2-c]pyridine], 299 nM corresponded to half-maximal inhibition (IC50).
In turn, `Cc1nc(-c2ccc(N3CCN(C4CCOCC4)CC3)c(F)c2)cc2c1cc(-c1ccc(S(C)(=O)=O)cc1)n2C` [Example 71, 6-(3-fluoro-4-(4-(tetrahydro-2H-pyran-4-yl)piperazin-1-yl)phenyl)-1,4-dimethyl-2-(4-(methylsulfonyl)phenyl)-1H-pyrrolo[3,2-c]pyridine] displayed a half-inhibitory concentration (IC50) of 3 nM.
With `Cc1nc(-c2ccc(N3CCN(CC(C)C)CC3)c(F)c2)cc2c1cc(-c1ccc(S(C)(=O)=O)cc1)n2C` [Example 72, 6-(3-fluoro-4-(4-isobutylpiperazin-1-yl)phenyl)-1,4-dimethyl-2-(4-(methylsulfonyl)phenyl)-1H-pyrrolo[3,2-c]pyridine] the figure was 411 nM; with `Cc1nc(-c2ccc(N3CC4CCC(C3)N4CC(C)C)cc2)cc2c1cc(-c1ccc(S(C)(=O)=O)cc1)n2C` [Example 73, 6-(4-(8-isobutyl-3,8-diazabicyclo[3.2.1]octan-3-yl)phenyl)-1,4-dimethyl-2-(4-(methylsulfonyl)phenyl)-1H-pyrrolo[3,2-c]pyridine], 359 nM; with `Cc1nc(-c2cc(F)c(N3CCN(C4CCOCC4)CC3)cc2F)cc2c1cc(-c1ccc(S(C)(=O)=O)cc1)n2C` [Example 81, 6-(2,5-difluoro-4-(4-(tetrahydro-2H-pyran-4-yl)piperazin-1-yl)phenyl)-1,4-dimethyl-2-(4-(methylsulfonyl)phenyl)-1H-pyrrolo[3,2-c]pyridine], 670 nM.
